Experimental data published in US20220041572A1, “CYCLOHEPTYL ACIDS AS LPA ANTAGONISTS” (BRISTOL-MYERS SQUIBB COMPANY, priority 2018, published 2022).

Columns and labels:
human LPA1 = target: T1, human LPA1 (Homo sapiens, UniProt Q92633); experiment: LPA1 functional antagonist assay (LPA-induced calcium flux); assay type: cell-based; conditions: CHO cells overexpressing human LPA1; inhibition of calcium flux induced by 10 nM LPA; read-out: hLPA1 IC50
T1 construct: expressed in transfected cells; host or cells: Chinese hamster ovary (CHO) cells
Procedure: The effectiveness of compounds of the present invention as LPA1 inhibitors can be determined in an LPA1 functional antagonist assay as follows:
Chinese hamster ovary cells overexpressing human LPA1 were plated overnight (15,000 cells/well) in poly-D-lysine coated 384-well microplates (Greiner bio-one, Cat#781946) in DMEM/F12 medium (Gibco, Cat#11039). Following overnight culture, cells were loaded with calcium indicator dye (AAT Bioquest Inc, Cat#34601) for 30 minutes at 37° C. The cells were then equilibrated to room temperature for 30 minutes before the assay. Test compounds solubilized in DMSO were transferred to 384 well non-binding surface plates (Coming, Cat#3575) using the Labcyte Echo acoustic dispense and diluted with assay buffer [1X HBSS with calcium/magnesium (Gibco Cat#14025-092), 20 mM HEPES (Gibco Cat#15630-080) and 0.1% fatty acid free BSA (Sigma Cat#A9205)] to a final concentration of 0.5% DMSO. Diluted compounds were added to the cells by FDSS6000 (Hamamatsu) at final concentrations ranging from 0.08 nM to 5 μM. and were then incubated for 20 min at room temperature at which time LPA (Avanti Polar Lipids Cat#857130C) was added at final concentrations of 10 nM to stimulate the cells. The compound IC50 value was defined as the concentration of test compound which inhibited 50% of the calcium flux induced by LPA alone. IC50 values were determined by fitting data to a 4-parameter logistic equation (GraphPad Prism, San Diego Calif.).

nerve-injured mice = conditions: pretreatment, Inoue et al 2004; cited from earlier work
[1] = system: human foetal lung fibroblasts; conditions: Tager et al. Nature Medicine 2008; cited from earlier work
UUO mice = conditions: compared with LPA1 (−/−) mice; cited from earlier work
CTGF = conditions: MCT cells, co-treatment with LPA; cited from earlier work
[2] = system: pancreatic cancer cell lines; conditions: Yamada et al 2004; cited from earlier work
[3] = system: highly peritoneal metastatic pancreatic cancer cell line; conditions: Yamada et al 2004; cited from earlier work

T1 sequence (Q92633 whole entry): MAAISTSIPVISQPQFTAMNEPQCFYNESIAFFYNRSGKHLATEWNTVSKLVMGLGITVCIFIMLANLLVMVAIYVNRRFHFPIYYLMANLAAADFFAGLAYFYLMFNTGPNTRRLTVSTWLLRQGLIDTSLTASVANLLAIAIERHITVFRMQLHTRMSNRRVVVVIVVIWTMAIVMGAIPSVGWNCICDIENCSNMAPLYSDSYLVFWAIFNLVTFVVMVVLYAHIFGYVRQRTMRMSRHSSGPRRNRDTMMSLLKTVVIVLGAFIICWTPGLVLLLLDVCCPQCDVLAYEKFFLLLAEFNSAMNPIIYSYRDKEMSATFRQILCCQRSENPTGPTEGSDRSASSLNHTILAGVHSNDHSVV

| IC50 (human LPA1) [nM] | SMILES | further results |
| --- | --- | --- |
| 20 | Cc1nc(-c2nnn(C)c2COC(=O)N(C)C2CCC2)ccc1OC1CCCCC(C(=O)O)C1 (stereo not drawn) [Example 14] | – |
| 32 | CCc1cc(OCc2c(-c3ccc(OC4CCCCC(C(=O)O)C4)c(C)n3)nnn2C)ncn1 (racemic) [Example 15, (±)-3-((6-(5-(((6-ethylpyrimidin-4-yl)oxy)methyl)-1-methyl-1H-1,2,3-triazol-4-yl)-2-methylpyridin-3-yl)oxy)cycloheptane-1-carboxylic Acid] | – |
| 25 | Cc1nc(-c2nnn(C)c2COC(=O)N(C)CCC(C)C)ccc1OC1CCCCC(C(=O)O)C1 (stereo not drawn) [Example 12] | – |
| 117 | CCCN(C)C(=O)OCc1c(-c2ccc(OC3CCCCC(C(=O)O)C3)c(C)n2)nnn1C (stereo not drawn) [Example 6] | – |
| 67 | COc1cc(OCc2c(-c3ccc(OC4CCCCC(C(=O)O)C4)c(C)n3)nnn2C)ncn1 (stereo not drawn) [Example 20] | – |
| 19 | Cc1nc(-c2nnn(C)c2COC(=O)N(C)CC2CCC2)ccc1O[C@@H]1CCCC[C@H](C(=O)O)C1 (single isomer, unassigned) [Example 4] | – |
| 26 | COc1cc(OCc2c(-c3ccc(OC4CCCCC(C(=O)O)C4)c(C)n3)nnn2C)ncn1 (stereo not drawn) [Example 21] | – |
| 296 | Cc1nc(-c2nnn(C)c2COC(=O)N(C)CC2CCC2)ccc1O[C@@H]1CCCC[C@H](C(=O)O)C1 (single isomer, unassigned) [Example 5] | – |
| 108 | Cc1nc(-c2nnn(C)c2COC(=O)N(C)CC2CCC2)ccc1O[C@@H]1CCCC[C@@H](C(=O)O)C1 (single isomer, unassigned) [Example 3] | – |
| 51 | Cc1nc(-c2nnn(C)c2COC(=O)N(C)C2CCC2)ccc1OC1CCCCC(C(=O)O)C1 (stereo not drawn) [Example 13] | – |
| 325 | Cc1nc(-c2nnn(C)c2COc2cc(C(C)(C)C)ncn2)ccc1OC1CCCCC(C(=O)O)C1 (stereo not drawn) [Example 17] | – |

The remaining lines, values behind:

| SMILES | IC50 (human LPA1) [nM] | further results |
| --- | --- | --- |
| Cc1nc(-c2nnn(C)c2COC(=O)N(C)CC(C)C)ccc1OC1CCCCC(C(=O)O)C1 (stereo not drawn) [Example 9] | 16 | – |
| Cc1nc(-c2nnn(C)c2NC(=O)OCC(C)C)ccc1OC1CCCCC(C(=O)O)C1 (stereo not drawn) [Example 24] | 91 | – |
| Cc1nc(-c2nnn(C)c2COC(=O)N(C)CCC(C)C)ccc1OC1CCCCC(C(=O)O)C1 (stereo not drawn) [Example 11] | 36 | – |
| Cc1nc(-c2nnn(C)c2COC(=O)N(C)CC(C)C)ccc1OC1CCCCC(C(=O)O)C1 (stereo not drawn) [Example 10] | 88 | – |
| Cc1nc(-c2nnn(C)c2COC(=O)N(C)C2CCCC2)ccc1OC1CCCCC(C(=O)O)C1 (stereo not drawn) [Example 8] | 11 | – |
| Cc1nc(-c2nnn(C)c2NC(=O)OCC2CC2)ccc1OC1CCCCC(C(=O)O)C1 (stereo not drawn) [Example 23] | 127 | – |
| Cc1nc(-c2nnn(C)c2COc2cc(C(C)C)ncn2)ccc1OC1CCCCC(C(=O)O)C1 (stereo not drawn) [Example 19] | 48 | – |
| Cc1nc(-c2nnn(C)c2COC(=O)N(C)Cc2ccccc2)ccc1OC1CCCCC(C(=O)O)C1 (racemic) [Example 1, (±)-3-((6-(5-(((benzyl(methyl)carbamoyl)oxy)methyl)-1-methyl-1H-1,2,3-triazol-4-yl)-2-methylpyridin-3-yl)oxy)cycloheptane-1-carboxylic Acid] | 16 | – |
| Cc1nc(-c2nnn(C)c2COc2cc(C(C)C)ncn2)ccc1OC1CCCCC(C(=O)O)C1 (stereo not drawn) [Example 18] | 145 | – |
| Cc1nc(-c2nnn(C)c2COC(=O)N(C)CC2CCC2)ccc1O[C@@H]1CCCC[C@@H](C(=O)O)C1 (single isomer, unassigned) [Example 2] | 9.5 | – |
| C[C@@H](N)[C@H]1CC[C@H](C(=O)Nc2ccncc2)CC1 [Example Y-27632] | – | allodynia and hyperalgesia (nerve-injured mice): completely abolished |
| Cc1nc(-c2nnn(C)c2NC(=O)O[C@H](C)c2ccccc2)ccc1OC1CCCCC(C(=O)O)C1 (mixture of isomers) [Example 22, (±)-3-((2-methyl-6-(1-methyl-5-((((R)-1-phenylethoxy)carbonyl)amino)-1H-1,2,3-triazol-4-yl)pyridin-3-yl)oxy)cycloheptane-1-carboxylic Acid] | 53 | – |
| Cc1nc(-c2nnn(C)c2COC(=O)N(C)CC2CC2)ccc1OC1CCCCC(C(=O)O)C1 (stereo not drawn) [Example 7] | 11 | – |
| Cc1noc(-c2ccc(CSCCC(=O)O)cc2)c1NC(=O)OC(C)c1ccccc1Cl (stereo not drawn) [Ki16425] | – | chemotaxis of human foetal lung fibroblasts induced by BAL from IPF patients [1]: blocked; renal fibrosis profile of treated UUO mice (UUO mice): closely resembled the profile of LPA1 (−/−) mice; LPA induction of CTGF expression (CTGF): almost completely suppressed; in vitro migration in response to LPA and peritoneal fluid (ascites) from pancreatic cancer patients [2]: effectively blocked; LPA-induced and ascites-induced invasion activity [3]: blocked |
| Cc1nc(-c2nnn(C)c2COc2cc(C(C)(C)C)ncn2)ccc1OC1CCCCC(C(=O)O)C1 (stereo not drawn) [Example 16] | 154 | – |
